In patent US20130281491A1 (priority 2010, published 2013):

Test: Forced degradation of methadone hydrochloride solutions (HPLC)
Conditions: 1M hydrochloric acid or 0.1M sodium hydroxide, 25° C. for a week

CCC(=O)C(CC(C)N(C)C)(c1ccccc1)c1ccccc1 (stereo not shown) [methadone]
Stability with acids and bases: no detected degradation
